Patent US8209131B2, “Therapeutic heparins and their binding to interleukins 4 and 5 and PECAM-1” (Curtin University of Technology, priority 2004, dated 2012)
Like-named read-outs stand apart in the source and are kept apart here.

Key:
[1] = BIAcore binding of proteins to heparin immobilised on a biosensor chip; details: for binding to immobilized heparin: recombinant proteins, FIG. 2
Text: This technology uses the optical phenomenon of surface plasmon resonance to monitor physical interactions between molecules. Passing the protein solution over a sensor surface to which the ligand is coupled monitors the real-time binding of proteins to an immobilized ligand. Detection is achieved by measuring refractive index changes very close to the sensor surface. When the refractive index is altered, the angle at which plasmon resonance occurs changes and this change directly correlates with the amount of protein interacting with the surface. A BIAcore 2000 is conveniently used. It is very sensitive and its microfluidics ensures that only small amounts of material are required.
The HLGAGs are immobilized on the biosensor chip. Intact HLGAGs are biotinylated via amino groups, or reducing termini modified with ammonia by reductive amination, using sulfo-NHS-biotin. Biotinylated HLGAGs are immobilized on streptavidin-coupled sensor chips. Solutions containing proteins of interest are injected over the sensor chip surface, and the binding is measured in real time (Fernig, In: Proteoglycan protocols, Ed. R.V. Iozzo, Humana Press, Totowa, N.J., USA, 2001). […] In all cases binding is specific, as there is little or no interaction with sensor chips lacking heparin with any of the targeted proteins, and binding is inhibited by exogenous heparin. Initial analyzes indicate that the binding of rhIL-5 to heparin has affinity constants of the order from 50-5×10^−9. Because unsubstituted amines are variably present in heparan sulfates from different tissues, an alternative method of biotin labeling is recommended for the heparan sulfate chip. In this case, heparan sulfate is labeled via oxidized cis-diol residues using biotinyl-LC-hydrazine. […]
Binding experiments with these proteins has indicated to which PECAM-1 domains heparin binds. Two binding assays were used: the assay where PECAM-1 is reacted with a BIAcore biosensor chip to which heparin has been immobilised and the second assay is the binding of PECAM-1 to heparan sulfate on the cell surface.
Site directed mutagenesis was performed on IL-4. Basic residues within the proposed heparin binding site were changed to alanine and the proteins expressed using the baculovirus expression system. The one exception was R88 which was changed to valine. Insect cell expressed proteins were purified on an anti-IL-4 affinity column and checked for purity by SDS-PAGE and silver staining. Mutant IL-4 proteins were examined for their ability to bind heparin immobilised on a biosensor chip and binding assessed using a BIAcore 2000.

TF1.8 cells = assay: TF1.8 bioassay of IL-4 mutants (support of proliferation); assay type: cell-based, human; details: IL-4 wt and mutants, TF1.8 cells
Experimental: TF-1.8 cells have been transfected with the firefly luciferase gene contained in the expression vector, pPGK-puromycin-luciferase (Coombe et al., 1998, Supra). The positive transfectants are cloned to produce a line with good luciferase expression. The proliferation assays are carried out in 96-well microplates suitable for such assays Falcon). The wells are flat bottomed, with white sides and a clear bottom. Cells are washed to remove any cytokine in the growth medium and then resuspended in RPMI/5% w/v FCS. The cells are counted with a Coulter Multisizer (Coulter Electronics, England) and routinely 2.5×10^4 cells are added to microplate wells that contain either no IL-4 (negative control) or various dilutions of IL-4. When the effect of HLGAGs, chondroitin sulfate C, or the heparin fractions of a particular length, or heparin fragments of a particular length and structure is to be measured, the wells also contain various concentrations of these molecules.
The cells proliferate for 48 hours at 37° C. in a humidified atmosphere, after which the luciferase activity is measured by the addition of 50 μl of luciferase substrate buffer (50 mm Tris-HCl, pH 7.8, 15 mM MgSO4, 33.3 mM DTT, 0.1 mM EDTA, 0.5 mM Na-luciferin, 0.5 mM ATP, 0.25 mM lithium Co A and 0.5% v/v Triton X-100). […] Light emissions are detected on a Victor 1420 Multilabel counter (Wallac, Turku, Finland). […]

Substance | binding to immobilized heparin [1] | Conc needed for 50% growth, average (TF1.8 cells) | Kd ([1]; FIG. 24, several IL-4 concentrations, read-out: estimated KD of wild-type IL-4 binding to heparin) | ka ([1]; IL-4 WT and mutants binding to heparin, in M-1s-1 (unit assumed)) | kd ([1]; IL-4 WT and mutants binding to heparin, in s-1 (unit assumed)) | Kd ([1]; IL-4 WT and mutants binding to heparin, read-out: KD) | binding of PECAM-1 constructs to immobilised heparin [1]
CypA: E. coli expressed Cyclophilin A | readily bind to heparin | – | – | – | – | – | –
rhIL-5: baculovirus expressed human IL-5 | readily bind to heparin | – | – | – | – | – | –
WT: recombinant human wild-type IL-4 | readily bind to heparin | 0.99 ng/mL | 5 to 10 nM | 5.68E+04 | 2.88E−03 | 52.7 nM | –
flag-PECAM-1: extracellular domain of PECAM-1 fused to the flag affinity tag, Cos-7 expressed | readily bind to heparin | – | – | – | – | – | can bind to the heparin chip
